Reference: US9814720B2, “Compositions and methods of inhibiting IL-17 expression of neutrophils” (priority 2014, dated 2017)

Tested on: RORγt
Assay: RORγt nuclear translocation in IL-6/23-stimulated human neutrophils (nuclear extract western blot, confocal)
Type: cell-based
Protocol: Neutrophils were isolated from peripheral blood of healthy donors. Peripheral blood was incubated in 3% Dextran, and neutrophils isolated by Ficoll gradient centrifugation (Fisher Scientific), with neutrophil purity determined by staining with Wright-Giemsa.
Murine or human neutrophils were suspended at a density of 10^6 cells/ml and incubated with […] of recombinant mouse or human IL-6 and 2 μg/ml IL-23 in RPMI, and the cells were maintained for 1-3 h at 37° C. in 5% CO2. Various inhibitors were used for assessing STAT3 activation. For STAT3, neutrophils were treated with either the STAT3-SH2 inhibitor, Stattic (20 μM) obtained from Tocris, or the JAK-1, 2 inhibitor, INC424, (aka Ruxolitinib; 20 μM (Selleck BioChem)). For the determination of RORγt-dependent signaling, SR1001 (20 μM; Sigma) was used, which inhibits RORγt binding to the IL-17 promoter site. All inhibitors were added to neutrophils 2 h prior to recombinant IL-6 and IL-23 stimulation. […]
Neutrophils collected from primed or naïve C57BL/6 mice or unstimulated murine or human neutrophils were incubated with recombinant IL-6 and IL-23 for 60 min. […] Total protein was quantified using the BCA method, denatured with 2× Laemmli buffer (Sigma) and heated to 95° C. for 5 minutes. […] Ten μg of total protein was analyzed on a 12% SDS polyacrylamide gel, and transferred to nitrocellulose. […]

## O=[N+]([O-])c1ccc2c(c1)S(=O)(=O)C=C2 [Stattic]
  RORγt localisation by confocal microscopy: only detected in the cytoplasm
Western blot, FIG. 5B
  RORγt in nuclear extracts: no longer detectable
